Measurements published in ChEMBL document CHEMBL5244223, “l,8-Naphthalimide based DNA intercalators and anticancer agents. A systematic review from 2007 to 2017” (Eur J Med Chem, 2018).
Values after ≈ are worked out from the molar mass of the structure shown. Values belong to the compound of their own block, whether it stands above or below them.

Key:
HeLa [1] = assay: Cytotoxicity against human HeLa cells assessed as inhibition of cell growth incubated for 48 hrs by MTT assay; type: functional, cell-based
A549 = assay: Cytotoxicity against human A549 cells assessed as inhibition of cell growth incubated for 48 hrs by MTT assay; type: functional, cell-based; conditions: A549, 48 h
K562 = assay: Cytotoxicity against human K562 cells assessed as inhibition of cell growth incubated for 48 hrs by MTT assay; type: functional, cell-based; conditions: K562, 48 h
Pseudomonas aeruginosa = assay: Antibacterial activity against Pseudomonas aeruginosa MTCC 741 assessed as inhibition of bacterial growth by agar well diffusion assay; type: functional
Calf thymus DNA = assay: Binding affinity to calf thymus DNA assessed as DNA intercalation by measuring change in melting temperature by thermal denaturation assay; type: nucleic-acid assay; conditions: Bos taurus
Escherichia coli = assay: Antibacterial activity against Escherichia coli MTCC 443 assessed as inhibition of bacterial growth by agar well diffusion assay; type: functional
Staphylococcus aureus = assay: Antibacterial activity against Staphylococcus aureus MTCC 96 assessed as inhibition of bacterial growth by agar well diffusion assay; type: functional
[2] = test system: Staphylococcus epidermidis; assay: Antibacterial activity against Staphylococcus epidermidis MTCC 435 assessed as inhibition of bacterial growth by agar well diffusion assay; type: functional
L1210 = assay: Antiproliferative activity against mouse L1210 cells assessed as inhibition of cell proliferation incubated for 48 hrs by coulter counter assay; type: functional, cell-based; conditions: L1210, 48 h
HeLa [3] = assay: Antiproliferative activity against human HeLa cells assessed as inhibition of cell proliferation incubated for 48 hrs by coulter counter assay; type: functional, cell-based
[4] = Antiproliferative activity against human HMEC-1 cells assessed as inhibition of cell proliferation incubated for 48 hrs by coulter counter assay; type: toxicity, cell-based
CCRF-CEM = assay: Antiproliferative activity against human CEM cells assessed as inhibition of cell proliferation incubated for 48 hrs by coulter counter assay; type: functional, cell-based
[5] = Cytotoxicity against human QSG7701 cells assessed as inhibition of cell growth incubated for 48 hrs by MTT assay; type: toxicity, cell-based

SMILES: CN(C)CCN1C(=O)c2cccc3cc(NC(=O)CCNC(=O)C(Cl)Cl)cc(c23)C1=O
IC50 (HeLa [1]): 21.5 µM
IC50 (A549): 4.7 µM
IC50 (K562): 8.5 µM

MIC (Pseudomonas aeruginosa): 18.8 µg/mL (≈ 21.8 µM)
ΔTm (Calf thymus DNA): 0.1 °C
MIC (Escherichia coli): 18.8 µg/mL (≈ 21.8 µM)
MIC (Staphylococcus aureus): 18.8 µg/mL (≈ 21.8 µM)
MIC [2]: 18.8 µg/mL (≈ 21.8 µM)
SMILES: O=C1c2ccc3c4c(ccc(c24)C(=O)N1c1nc(-c2cc4cc(Cl)cc(Cl)c4oc2=O)cs1)C(=O)N(c1nc(-c2cc4cc(Cl)cc(Cl)c4oc2=O)cs1)C3=O

MIC (Pseudomonas aeruginosa): 18.8 µg/mL (≈ 23.7 µM)
ΔTm (Calf thymus DNA): 24.3 °C
MIC (Escherichia coli): 18.8 µg/mL (≈ 23.7 µM)
MIC (Staphylococcus aureus): 18.8 µg/mL (≈ 23.7 µM)
MIC [2]: 18.8 µg/mL (≈ 23.7 µM)
SMILES: O=C1c2ccc3c4c(ccc(c24)C(=O)N1c1nc(-c2cc4cc(Cl)ccc4oc2=O)cs1)C(=O)N(c1nc(-c2cc4cc(Cl)ccc4oc2=O)cs1)C3=O

SMILES: CN(C)CCN1C(=O)c2cccc3cc(NC(=O)CCCNC(=O)C(Cl)Cl)cc(c23)C1=O
IC50 (HeLa [1]): 21.5 µM
IC50 (A549): 4.7 µM
IC50 (K562): 8.5 µM

SMILES: CCOP(=O)(CCOCn1cc(CN2C(=O)c3cccc4cccc(c34)C2=O)nn1)OCC
IC50 (L1210): > 250 µM
IC50 (HeLa [3]): > 250 µM
IC50 at 48 h [4]: > 250 µM
IC50 (CCRF-CEM): > 250 µM

SMILES: CN(C)CCN1C(=O)c2cccc3cc(NC(=O)CCCCCN)cc(c23)C1=O
IC50 (HeLa [1]): 21.5 µM
IC50 (A549): 4.7 µM
IC50 (K562): 8.5 µM

SMILES: CN(C)CCN1C(=O)c2cccc3cc(NC(=O)CN)cc(c23)C1=O
IC50 (HeLa [1]): 21.5 µM
IC50 (A549): 4.7 µM
IC50 (K562): 8.5 µM

SMILES: CCOP(=O)(CC(=O)NCn1cc(CN2C(=O)c3cccc4c(Br)ccc(c34)C2=O)nn1)OCC
IC50 (L1210): > 250 µM
IC50 (HeLa [3]): > 250 µM
IC50 at 48 h [4]: > 250 µM
IC50 (CCRF-CEM): > 250 µM

SMILES: CN(C)CCN1C(=O)c2cccc3cc(NC(=O)CCN)cc(c23)C1=O
IC50 (HeLa [1]): 21.5 µM
IC50 (A549): 4.7 µM
IC50 (K562): 8.5 µM

SMILES: CCOP(=O)(CC(O)Cn1cc(CN2C(=O)c3cccc4c(Br)ccc(c34)C2=O)nn1)OCC (stereo not drawn)
IC50 (L1210): > 250 µM
IC50 (HeLa [3]): > 250 µM
IC50 at 48 h [4]: > 250 µM
IC50 (CCRF-CEM): > 250 µM

MIC (Pseudomonas aeruginosa): 18.8 µg/mL (≈ 40.9 µM)
ΔTm (Calf thymus DNA): 0.1 °C
MIC (Escherichia coli): 18.8 µg/mL (≈ 40.9 µM)
MIC (Staphylococcus aureus): 18.8 µg/mL (≈ 40.9 µM)
MIC [2]: 18.8 µg/mL (≈ 40.9 µM)
SMILES: O=C1c2cccc3cccc(c23)C(=O)N1c1nc(-c2cc3cc(Cl)ccc3oc2=O)cs1

SMILES: CCOP(=O)(CC(O)Cn1cc(CN2C(=O)c3cccc4cccc(c34)C2=O)nn1)OCC (stereo not drawn)
IC50 (L1210): > 250 µM
IC50 (HeLa [3]): > 250 µM
IC50 at 48 h [4]: > 250 µM
IC50 (CCRF-CEM): > 250 µM

SMILES: CCOP(=O)(CCOCCn1cc(CN2C(=O)c3cccc4cccc(c34)C2=O)nn1)OCC
IC50 (L1210): > 250 µM
IC50 (HeLa [3]): > 250 µM
IC50 at 48 h [4]: > 250 µM
IC50 (CCRF-CEM): > 250 µM

SMILES: CCOP(=O)(CCn1cc(CN2C(=O)c3cccc4cc([N+](=O)[O-])cc(c34)C2=O)nn1)OCC
IC50 (L1210): > 250 µM
IC50 (HeLa [3]): > 250 µM
IC50 at 48 h [4]: > 250 µM
IC50 (CCRF-CEM): > 250 µM

SMILES: CCOP(=O)(CCOCn1cc(CN2C(=O)c3cccc4cc([N+](=O)[O-])cc(c34)C2=O)nn1)OCC
IC50 (L1210): > 250 µM
IC50 (HeLa [3]): > 250 µM
IC50 at 48 h [4]: > 250 µM
IC50 (CCRF-CEM): > 250 µM

SMILES: CCOP(=O)(CC(O)Cn1cc(CN2C(=O)c3cccc4cc([N+](=O)[O-])cc(c34)C2=O)nn1)OCC (stereo not drawn)
IC50 (L1210): > 250 µM
IC50 (HeLa [3]): > 250 µM
IC50 at 48 h [4]: > 250 µM
IC50 (CCRF-CEM): > 250 µM

SMILES: CCOP(=O)(CCOCCn1cc(CN2C(=O)c3cccc4cc([N+](=O)[O-])cc(c34)C2=O)nn1)OCC
IC50 (L1210): > 250 µM
IC50 (HeLa [3]): > 250 µM
IC50 at 48 h [4]: > 250 µM
IC50 (CCRF-CEM): > 250 µM

SMILES: CCOP(=O)(Cn1cc(CN2C(=O)c3cccc4cc([N+](=O)[O-])cc(c34)C2=O)nn1)OCC
IC50 (L1210): > 250 µM
IC50 (HeLa [3]): > 250 µM
IC50 at 48 h [4]: > 250 µM
IC50 (CCRF-CEM): > 250 µM

SMILES: NCCCNCCCCNCCCN1C(=O)c2cccc3cccc(c23)C1=O
IC50 at 48 h [5]: > 50 µM

SMILES: CCOP(=O)(CCCn1cc(CN2C(=O)c3cccc4cccc(c34)C2=O)nn1)OCC
IC50 (L1210): > 250 µM
IC50 (HeLa [3]): > 250 µM
IC50 at 48 h [4]: > 250 µM
IC50 (CCRF-CEM): > 250 µM

SMILES: CCOP(=O)(CCn1cc(CN2C(=O)c3cccc4c(Br)ccc(c34)C2=O)nn1)OCC
IC50 (L1210): > 250 µM
IC50 (HeLa [3]): > 250 µM
IC50 at 48 h [4]: > 250 µM
IC50 (CCRF-CEM): > 250 µM

SMILES: CCOP(=O)(CC(=O)NCn1cc(CN2C(=O)c3cccc4cccc(c34)C2=O)nn1)OCC
IC50 (L1210): > 250 µM
IC50 (HeLa [3]): > 250 µM
IC50 at 48 h [4]: > 250 µM
IC50 (CCRF-CEM): > 250 µM
